Experimental data from patent US20230405057A1, “MEDICAL COMPOSITIONS AND THEIR USE IN TREATING INFLAMMATORY BOWEL DISEASE” (BIOMILLENIA SAS, priority 2019, published 2023).
“Also recorded” adds a separate entry of the source.

How the values were obtained:
Type in all cases: cell-based
Malassezia furfur = experiment: Disc diffusion growth inhibition assay (supernatants); conditions: 6 mm discs soaked with 15 ul supernatant or ketoconazole 1 mg/ml in DMSO; soft agar lawn; 5 days incubation
Experimental: (§1) FIG. 1|Inhibition assays of the fungicide ketoconazole as positive control for inhibition and Kazachstania unispora supernatant on M. sympodialis, M. furfur, M. restricts and M. globosa. Inhibition assays were performed using the disc diffusion method. Discs were soaked with ketoconazole (1 mg/ml) or K. unispora supernatant and placed on agar plates containing a soft layer inoculated with a single culture of the different Malassezia species to be tested.
(§2) In order to identify strains inhibiting Malassezia growth, inhibition assays were performed using the disc diffusion method. This method consists in disposing discs imbibed with potential inhibitory substances on Petri plates containing a strain of interest. After optimal growth of the strain of interest, growth inhibition can be observed around discs soaked with substances having an inhibitory effect. Potential inhibitory substances tested in this experiment are supernatants obtained after individually culturing a collection of fungal and bacterial strains. After an incubation of 10 days in their optimal broth, each culture was centrifuged and the supernatant was filtered and further stored at −20° C. Ketoconazole, a fungicide, was used as a positive control for Malassezia growth inhibition. It was diluted in dimethyl sulfoxide at 1 mg/ml. The collection of supernatants was tested on the following species from the genus Malassezia: Malassezia restricta, Malassezia globosa, Malassezia furfur and Malassezia sympodialis. All strains were streaked from −80° C. stock on Modified Leeming and Notman (MLN) agar plates and incubated 10 days at 30° C. A 5 ml liquid culture of each species was made in MLN broth and incubated at 30° C. for 2 days for M. furfur and M. sympodialis and 5 days for M. restricta and M. globosa. To allow a lawn growth of the different Malassezia strains tested, Petri plates were prepared as follows: a bottom layer of 50 ml Modified Sabouraud Dextrose (MSD) agar was poured in Petri plates. The soft agar, constituting the top layer, was a mix of 12.5 ml MSD agar, 10.5 ml MLN broth and 2 ml of liquid culture. Plates were allowed to dry for one hour, then, 6 mm-diameter Whatman™ discs were soaked with 15 ul of each thawed supernatants and ketoconazole and placed on the soft agar plate containing the solidified Malassezia monoculture layer. After an incubation of 5 days, inhibition area could be easily observed around discs. As expected, ketoconazole inhibited all 4 Malassezia species tested in this experiment. […] The strain from which the inhibitory supernatant has been produced was further sequenced using the Sanger technology. The internal transcribed spacer (ITS) of this strain was taxonomically assigned to the yeast Kazachstania unispora (BLASTn, 99% identity, 99% query cover, e-value 0.00).

Malassezia globosa [1] = experiment: as above; conditions: 6 mm discs soaked with 15 ul supernatant or ketoconazole 1 mg/ml in DMSO; soft agar lawn; 5 days incubation
Experimental: as §1, §2

Malassezia restricta [2] = experiment: as above; conditions: 6 mm discs soaked with 15 ul supernatant or ketoconazole 1 mg/ml in DMSO; soft agar lawn; 5 days incubation
Experimental: as §1, §2

Malassezia sympodialis = experiment: as above; conditions: 6 mm discs soaked with 15 ul supernatant or ketoconazole 1 mg/ml in DMSO; soft agar lawn; 5 days incubation
Experimental: as §1, §2

Malassezia globosa [3] = experiment: Modified disc diffusion assay with living Acetobacter culture; conditions: 6 mm discs soaked with 15 ul exponentially growing Acetobacter culture or ketoconazole 1 mg/mL in DMSO; 5 days incubation
Experimental: (§3) FIG. 1|Inhibition assays of M. restricts and M. globose by growth of Acetobacter fabarum. Discs were soaked with ketoconazole (1 mg/ml in DMSO) or exponentially growing Acetobacter fabarum culture and placed on agar plates containing a soft layer inoculated with a single culture of the different Malassezia species to be tested. In the upper panel, inhibition of Malassezia globosa is shown; in the bottom panel, Malassezia restricta is shown.
(§4) In order to identify strains whose growth inhibits Malassezia, inhibition assays were performed using a modified disc diffusion method. This method is similar to the classical disk diffusion method that consists in depositing discs imbibed with potential inhibitory substances on Petri plates containing a strain of interest, except that the disks were imbibed with a living culture of an Acetobacter strain. After optimal growth of the strain of interest, growth inhibition can be observed around discs on which the growth of inhibitory bacteria has occurred. Ketoconazole (at 1 mg/mL in DMSO) was used as a positive control for Malassezia growth inhibition. The effect of growth of Acetobacter was tested on Malassezia restricta and Malassezia globosa. All Malassezia strains were streaked from −80° C. stock on Modified Leeming and Notman (MLN) agar plates and incubated 10 days at 30° C. […]

Malassezia restricta [4] = experiment: as above; conditions: 6 mm discs soaked with 15 ul exponentially growing Acetobacter culture or ketoconazole 1 mg/mL in DMSO; 5 days incubation
Experimental: as §3, §4

CC(=O)N1CCN(c2ccc(OCC3COC(Cn4ccnc4)(c4ccc(Cl)cc4Cl)O3)cc2)CC1 (stereo not drawn) [ketoconazole]
growth inhibition (inhibition halo around disc) of Malassezia furfur (Malassezia furfur): inhibits growth; also recorded: inhibited
growth inhibition (inhibition halo around disc) of Malassezia globosa (Malassezia globosa [1]): inhibits growth; also recorded: inhibited
growth inhibition (inhibition halo around disc) of Malassezia restricta (Malassezia restricta [2]): inhibits growth; also recorded: inhibited
growth inhibition (inhibition halo around disc) of Malassezia sympodialis (Malassezia sympodialis): inhibits growth; also recorded: inhibited
growth inhibition (inhibition halo around disc) of Malassezia globosa (Malassezia globosa [3]): inhibits growth; also recorded: inhibited
growth inhibition (inhibition halo around disc) of Malassezia restricta (Malassezia restricta [4]): inhibits growth; also recorded: inhibited
